Structures are written as SMILES.

One experiment deals with Prothrombin (Homo sapiens, UniProt P00734). As to the kind of experiment: Inhibition of human alpha-thrombin.
In turn, `N=C(N)N1CCC[C@@H](C[C@H](NC(=O)CN2C(=O)CN(CCCc3ccc(Cl)cc3)C(=O)[C@H]2Cc2ccccc2)C(=O)c2nccs2)C1` registered an IC50 of 110 nM.

`C[C@]12C[C@@H](Cc3ccc4nc(C(F)(F)F)ccc4c3)CC(=O)N1[C@H](C(=O)N[C@@H](CCCN=C(N)N)C(=O)c1nccs1)CS2` had a Ki of 10 nM.

The compound `N=C(N)NCCC[C@H](NC(=O)[C@@H]1CCCN1C(=O)[C@H](CO)NS(=O)(=O)c1cccc2ccccc12)C(=O)c1nc2ccccc2s1` gave a Ki of 0.8 nM.

The compound `Cc1cccc(C(C)(C)CN(CC(=O)NCC(=O)NC(CCCN=C(N)N)B(O)O)C(=O)CCc2ccccc2)c1` (single isomer, unassigned) displayed a Ki of 400 nM.

Compound `NC(N)=NCCC[C@H](NC(=O)CN1CCN(S(=O)(=O)Cc2ccccc2)CC1=O)C(=O)c1nccs1` displayed a 50% inhibitory concentration (IC50) of 390 nM.

For the compound `C[C@]12C[C@@H](Cc3ccc4nc(C(F)(F)F)ccc4c3)CC(=O)N1[C@H](C(=O)N[C@@H](CCCNC(=N)N)C(=O)c1nc3ccccc3s1)CS2`, the affinity, expressed as Ki, was 18 nM.

As for `NC(N)=NCCC[C@H](NC(=O)[C@@H]1CC[C@H]2CN(C(=O)[C@H](N)Cc3cc4ccccc4[nH]3)CC(=O)N21)C(=O)c1nccs1`, the Ki was determined as 1 nM.

Turning to `N=C(N)NCCC[C@H](NC(=O)[C@@H]1CC[C@H]2CN(S(=O)(=O)Cc3ccccc3)CC(=O)N21)C(=O)c1nccs1`, the Ki worked out at 0.2 nM.

Consider `C[C@]12C[C@@H](Cc3ccccc3)CC(=O)N1[C@H](C(=O)N[C@@H](CCCNC(=N)N)C(=O)c1nccs1)CS2`, for which the Ki was determined as 16 nM.

The compound `NC(N)=NCCC[C@H](NC(=O)CN1CCN(S(=O)(=O)c2ccc(Cl)cc2)CC1=O)C(=O)c1nccs1` gave an IC50 of 1000 nM.

As to `N=C(N)NCCC[C@H](NC(=O)[C@@H]1CCCN1C(=O)CC(c1ccccc1)c1ccccc1)C(=O)c1nc2ccccc2s1`, the affinity corresponds to a Ki of 1.1 nM.

In turn, `NC(N)=NCCC[C@H](NC(=O)CN1CCCC[C@@H](NS(=O)(=O)Cc2ccccc2)C1=O)C(=O)c1nccs1` yielded an IC50 of 38 nM.

Consider `CC(C)C[C@H](NC(=O)NCc1ccc(Cl)c(Cl)c1)C(=O)N[C@H](C(=O)N[C@@H](CCCN=C(N)N)C(=O)c1nccs1)C(C)C`, for which inhibition was half-maximal at 2600 nM (IC50).

`C[C@]12C[C@@H](Cc3ccccc3)CC(=O)N1[C@H](C(=O)N[C@@H](CCCN=C(N)N)C(=O)c1nc3ccccc3s1)CS2` had a Ki of 18 nM.

On to `N=C(N)N1CCC[C@@H](C[C@H](NC(=O)CN2C(=O)CN(c3ccccc3)C(=O)[C@H]2Cc2ccccc2)C(=O)c2nccs2)C1`, for which it took 1200 nM to reach half-maximal inhibition (IC50).

In turn, `N=C(N)NCCC[C@H](NC(=O)[C@@H]1CC[C@H]2CN(C(=O)CCOc3ccccc3)CC(=O)N21)C(=O)c1nccs1` gave a Ki of 5 nM.

Take `N=C(N)NCCC[C@H](NC(=O)[C@@H]1CC[C@H]2CN(C(=O)CCc3ccccc3)CC(=O)N21)C(=O)c1nc2ccccc2s1`: the IC50 was under 1 nM.

The target of another experiment is Coagulation factor X (Homo sapiens, UniProt P00742). Briefly: Inhibition of human factor 10a.
Sequence of Coagulation factor X (P00742 41-179 limits assumed): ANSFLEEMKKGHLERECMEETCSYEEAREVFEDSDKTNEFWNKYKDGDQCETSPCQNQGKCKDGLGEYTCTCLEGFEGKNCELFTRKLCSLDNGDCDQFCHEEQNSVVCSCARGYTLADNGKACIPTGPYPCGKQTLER
Sequence of Coagulation factor X (P00742 235-488 limits assumed): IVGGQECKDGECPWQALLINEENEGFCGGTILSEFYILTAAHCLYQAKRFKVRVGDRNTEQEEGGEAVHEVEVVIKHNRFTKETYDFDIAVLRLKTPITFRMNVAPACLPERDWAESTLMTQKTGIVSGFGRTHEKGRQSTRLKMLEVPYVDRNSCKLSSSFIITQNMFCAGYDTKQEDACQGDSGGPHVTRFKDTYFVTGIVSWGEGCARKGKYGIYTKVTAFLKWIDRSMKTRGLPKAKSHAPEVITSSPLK
The compound `N=C(N)NCCC[C@H](NC(=O)CNC(=O)[C@@H](Cc1ccccc1)NS(=O)(=O)Cc1ccccc1)C(=O)c1nccs1` displayed an IC50 of 2 nM.

Regarding `N=C(N)NCCC[C@@H](NS(=O)(=O)Cc1ccccc1)C(=O)NCC(=O)N[C@@H](Cc1ccncc1)C(=O)c1nccs1`, the IC50 was found to be 44 nM.

Turning to `N=C(N)NCCC[C@@H](N)C(=O)NCC(=O)N[C@@H](CCCNC(=N)N)C(=O)c1nccs1`, half-maximal inhibition (IC50) required 8 nM.

Compound `NC(N)=NCCC[C@H](NC(=O)CN1CCN(S(=O)(=O)Cc2ccccc2)CC1=O)C(=O)c1nccs1` yielded a half-maximal inhibitory concentration (IC50) of 4 nM.

As to `N=C(N)NCCC[C@H](NC(=O)CNC(=O)[C@@H](Cc1c[nH]c2ccccc12)NS(=O)(=O)Cc1ccccc1)C(=O)c1nccs1`, the IC50 turned out to be 2 nM.

`N=C(N)NCCC[C@@H](NS(=O)(=O)Cc1ccccc1)C(=O)NCC(=O)N[C@@H](CCCCN)C(=O)c1nccs1` registered an IC50 of 1 nM.

`N=C(N)NCCC[C@@H](NS(=O)(=O)Cc1ccccc1)C(=O)NCC(=O)N[C@@H](CC1CCNCC1)C(=O)c1nccs1`: the IC50 stood at 28 nM.

`CN(CC(=O)N[C@@H](CCCNC(=N)N)C(=O)c1nccs1)C(=O)CNS(=O)(=O)c1ccccc1`: inhibition was half-maximal at 6 nM (IC50).

Take `CS(=O)(=O)N[C@H](CCCNC(=N)N)C(=O)NCC(=O)N[C@@H](CCCNC(=N)N)C(=O)c1nccs1`: half-maximal inhibition (IC50) required 2 nM.

As a reminder, the IC50 is the concentration that inhibits the measured activity by half. A high value points to weaker potency in that assay. Usually Ki stands for a measure of affinity in units of concentration, obtained from inhibition or displacement.

The record behind these values is ChEMBL document CHEMBL1143211, “Inhibitors of proteases and amide hydrolases that employ an alpha-ketoheterocycle as a key enabling functionality” (Bioorg Med Chem, 2008).
